Laboratory results: patent US20140011839A1, “COMPOSITIONS AND METHODS FOR TREATING AND INHIBITING VIRAL INFECTIONS” (priority 2012, published 2014)

How the values were obtained:
[1] = test system: HPV-11; assay: HPV transient replication assay (E1/E2 expression vectors plus ori plasmid, qPCR of replicated DNA); type: cell-based, human papillomavirus; conditions: for SI90 (CC50/EC90): selectivity index
Source text: (§1) Specifically, in these tests, vectors for expression of an HPV genotype-matched set of viral El and E2 proteins (derived from virus strain HPV-11) along with an HPV ori-containing plasmid were cotransfected into HEK293 cells. […] Low molecular weight DNA was harvested 2 days post-transfection and digested with Dpnl and exonuclease Ill to remove unreplicated transfected plasmid DNA. The replicated DNA was then subjected to real time qPCR (quantitative polymerase chain reaction) analyses in triplicate. Two controls were performed. One was to omit the El expression vector to provide a background amount of undigested and unreplicated DNA. The other, positive control was treatment with the known inhibitor cidofovir, as mentioned above. A toxicity assay based upon cell viability at the time of harvest on day 2 was performed alongside each transient replication assay in 293 cells. The test compounds were added 4 hours post transfection for a total exposure of 44 hours. More than 1×10^5 cells were scored in a BioRad Automatic Cell Counter, with a determination of the total numbers, the numbers of trypan blue stained (dead) cells, and the % of dead cells.

[2] = in vitro; conditions: human
Source text: as §1

| Compound | EC90 ([1]; Human papillomavirus, HPV-11 E1/E2 + ori plasmid in HEK293 cells, compounds tested at 1, 10, 100 μM, 44 hours exposure, read-out: EC90 (concentration that reduces viral replication by 90%)) | SI90 (CC50/EC90) [1] | CC50 at 44 h [2] |
| --- | --- | --- | --- |
| Nc1ccn(C[C@@H](CO)OCP(=O)(O)O)c(=O)n1 [Cidofovir, cidofovir] | > 200 µM | 1 | > 200 µM |
| CCN(CC)Cc1cc(Nc2ccnc3cc(Cl)ccc23)ccc1O [Amodiaquine, amodiaquine] |  | >2 | > 100 µM |
